Assay results as given in patent US10428083B2, “Heterocyclylmethyl-thienouracile as antagonists of the adenosine-A2B-receptor” (BAYER PHARMA AKTIENGESELLSCHAFT, priority 2015, dated 2019).

Target: human adenosine A2b receptor (Homo sapiens (Human), UniProt P29275)
Assay: Cellular in vitro reporter gene test for A2b receptor activity (CHO-K1, CRE-luciferase, NECA stimulation)
Assay type: cell-based
Details: recombinant CHO-K1 cell line, CRE-luciferase reporter, antagonism of EC50 concentration of NECA; in some cases means of several determinations, rounded to two significant figures; read-out: A2b receptor IC50
Summary of the method: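 CHO-K1 cells with CRE-driven luciferase; antagonists co-incubated with NECA at its EC50, determined in a pre-experiment on each test day. Luciferase read by luminescence 3 h after NECA addition.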

human adenosine A2b receptor, sequence (P29275 whole entry): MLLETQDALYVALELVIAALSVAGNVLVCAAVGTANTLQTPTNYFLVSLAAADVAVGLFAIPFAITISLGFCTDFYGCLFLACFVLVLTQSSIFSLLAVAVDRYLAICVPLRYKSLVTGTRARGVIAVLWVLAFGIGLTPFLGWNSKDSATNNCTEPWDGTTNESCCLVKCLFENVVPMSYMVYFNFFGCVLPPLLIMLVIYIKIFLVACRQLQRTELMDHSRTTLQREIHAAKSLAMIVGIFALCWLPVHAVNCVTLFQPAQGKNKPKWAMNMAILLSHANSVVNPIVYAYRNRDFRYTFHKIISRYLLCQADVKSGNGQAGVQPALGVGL

Row | IC50 | SMILES
1 | 79 nM | COCCn1c(=O)n(C(C)C(F)(F)F)c(=O)c2c(C)c(CN3CCNC3=O)sc21 (single isomer, unassigned) [Example 498, 1-(2-Methoxyethyl)-5-methyl-6-[(2-oxoimidazolidin-1-yl)methyl]-3-(1,1,1-trifluoropropan-2-yl)thieno[2,3-d]pyrimidine-2,4(1H,3H)-dione]
2 | 8.5 nM | COCCn1c(=O)c2c(C)c(Cn3cc[nH]c3=O)sc2n(CCC(F)(F)F)c1=O [Example 344, 3-(2-Methoxyethyl)-5-methyl-6-[(2-oxo-2,3-dihydro-1H-imidazol-1-yl)methyl]-1-(3,3,3-trifluoropropyl)thieno[2,3-d]pyrimidine-2,4(1H,3H)-dione]
3 | 1.4 nM | CCn1c(=O)c2c(C)c(Cn3cc[nH]c3=O)sc2n(CC2CCCO2)c1=O (racemic) [Example 242, 3-Ethyl-5-methyl-6-[(2-oxo-2,3-dihydro-1H-imidazol-1-yl)methyl]-1-(tetrahydrofuran-2-ylmethyl)thieno[2,3-d]pyrimidine-2,4(1H,3H)-dione]
4 | 2.1 nM | Cc1c(Cn2cc[nH]c2=O)sc2c1c(=O)n(C(C)C)c(=O)n2CCC(F)(F)F [Example 245, 3-Isopropyl-5-methyl-6-[(2-oxo-2,3-dihydro-1H-imidazol-1-yl)methyl]-1-(3,3,3-trifluoropropyl)thieno[2,3-d]pyrimidine-2,4(1H,3H)-dione]
5 | 6.3 nM | Cc1c(CN2CCNC2=O)sc2c1c(=O)n(C(C)C)c(=O)n2CC1CCCO1 (single isomer, unassigned) [Example 187, 3-Isopropyl-5-methyl-6-[(2-oxoimidazolidin-1-yl)methyl]-1-(tetrahydrofuran-2-ylmethyl)thieno[2,3-d]pyrimidine-2,4(1H,3H)-dione]
6 | 25 nM | Cc1c(Cn2cc[nH]c2=O)sc2c1c(=O)n(CC(F)(F)F)c(=O)n2CC1CCCO1 (single isomer, unassigned) [Example 343, 5-Methyl-6-[(2-oxo-2,3-dihydro-1H-imidazol-1-yl)methyl]-1-(tetrahydrofuran-2-ylmethyl)-3-(2,2,2-trifluoroethyl)thieno[2,3-d]pyrimidine-2,4(1H,3H)-dione]
7 | 8.5 nM | CCOCCn1c(=O)n(CC(F)F)c(=O)c2c(C)c(CN3CCNC3=S)sc21 [Example 161, 3-(2,2-Difluoroethyl)-1-(2-ethoxyethyl)-5-methyl-6-[(2-thioxoimidazolidin-1-yl)methyl]thieno[2,3-d]pyrimidine-2,4(1H,3H)-dione]
8 | 2 nM | CCn1c(=O)c2c(C)c(CN3CCNC3=NC(=O)OC)sc2n(CCC(F)(F)F)c1=O [Example 370, Methyl [1-{[3-ethyl-5-methyl-2,4-dioxo-1-(3,3,3-trifluoropropyl)-1,2,3,4-tetrahydrothieno[2,3-d]pyrimidin-6-yl]methyl}imidazolidin-2-ylidene]carbamate]
9 | 280 nM | Cc1c(Cn2nc[nH]c2=O)sc2c1c(=O)n(CC(C)(C)C)c(=O)n2CC1CCCO1 (single isomer, unassigned) [Example 430, 3-(2,2-Dimethylpropyl)-5-methyl-6-[(5-oxo-4,5-dihydro-1H-1,2,4-triazol-1-yl)methyl]-1-(tetrahydrofuran-2-ylmethyl)thieno[2,3-d]pyrimidine-2,4(1H,3H)-dione]
10 | 15 nM | Cc1c(CN2CCNC2=O)sc2c1c(=O)n(CC(C)C)c(=O)n2CC1CCO1 (racemic) [Example 194, 3-Isobutyl-5-methyl-1-(oxetan-2-ylmethyl)-6-[(2-oxoimidazolidin-1-yl)methyl]thieno[2,3-d]pyrimidine-2,4(1H,3H)-dione]
11 | 20 nM | COC(C)Cn1c(=O)c2c(C)c(CN3CCNC(=O)C3=O)sc2n(CCC(F)(F)F)c1=O (single isomer, unassigned) [Example 494, 6-[(2,3-Dioxopiperazin-1-yl)methyl]-3-(2-methoxypropyl)-5-methyl-1-(3,3,3-trifluoropropyl)thieno[2,3-d]pyrimidine-2,4(1H,3H)-dione]
12 | 14 nM | Cc1c(CN2CCNC2=S)sc2c1c(=O)n(CC(F)(F)F)c(=O)n2C [Example 159, 1,5-Dimethyl-6-[(2-thioxoimidazolidin-1-yl)methyl]-3-(2,22-trifluoroethyl)thieno[2,3-d]pyrimidine-2,4(1H,3H)-dione]
13 | 12 nM | COCCn1c(=O)n(CC(F)(F)F)c(=O)c2c(C)c(CN3CCNC3=S)sc21 [Example 41, 1-(2-Methoxyethyl)-5-methyl-6-[(2-thioxoimidazolidin-1-yl)methyl]-3-(2,2,2-trifluoroethyl)thieno[2,3-d]pyrimidine-2,4(1H,3H)-dione]
14 | 17 nM | Cc1c(CN2CCNC2=O)sc2c1c(=O)n(CC(F)(F)F)c(=O)n2CC1COC1 [Example 212, 5-Methyl-1-(oxetan-3-ylmethyl)-6-[(2-oxoimidazolidin-1-yl)methyl]-3-(2,2,2-trifluoroethyl)thieno[2,3-d]pyrimidine-2,4(1H,3H)-dione]
15 | 34 nM | COCCn1c(=O)c2c(C)c(CN3CCNC3=NC(=O)OC)sc2n(CC2CCCO2)c1=O (single isomer, unassigned) [Example 391, Methyl [1-f{[3-(2-methoxyethyl)-5-methyl-2,4-dioxo-1-(tetrahydrofuran-2-ylmethyl)-1,2,3,4-tetrahydrothieno[2,3-d]pyrimidin-6-yl]methyl}imidazolidin-2-ylidene]carbamate]
16 | 57 nM | COC(C)Cn1c(=O)c2c(C)c(CN3CCNC(=O)C3=O)sc2n(CCC(F)(F)F)c1=O (single isomer, unassigned) [Example 495, 6-[(2,3-Dioxopiperazin-1-yl)methyl]-3-(2-methoxypropyl)-5-methyl-1-(3,3,3-trifluoropropyl)thieno[2,3-d]pyrimidine-2,4(1H,3H)-dione]
17 | 5.6 nM | Cc1c(Cn2cc[nH]c2=O)sc2c1c(=O)n(CC(F)(F)F)c(=O)n2CCC(F)(F)F [Example 339, 5-Methyl-6-[(2-oxo-2,3-dihydro-1H-imidazol-1-yl)methyl]-3-(2,2,2-trifluoroethyl)-1-(3,3,3-trifluoropropyl)thieno[2,3-d]pyrimidine-2,4(1H,3H)-dione]
18 | 4.1 nM | CCn1c(=O)c2c(C)c(CN3CCNC3=S)sc2n(CCCF)c1=O [Example 29, 3-Ethyl-1-(3-fluoropropyl)-5-methyl-6-[(2-thioxoimidazolidin-1-yl)methyl]thieno[2,3-d]pyrimidine-2,4(1H,3H)-dione]
19 | 4.6 nM | Cc1c(CN2CCNC2=NC#N)sc2c1c(=O)n(C(C)C)c(=O)n2CC1CCCO1 (racemic) [Example 267, [1-{[3-Isopropyl-5-methyl-2,4-dioxo-1-(tetrahydrofuran-2-ylmethyl)-1,2,3,4-tetrahydrothieno[2,3-d]pyrimidin-6-yl]methyl}imidazolidin-2-ylidene]cyanamide]
20 | 34 nM | COCCn1c(=O)n(CC2CC2(F)F)c(=O)c2c(C)c(CN3CCNC3=O)sc21 (racemic) [Example 323, 3-[(2,2-Difluorocyclopropyl)methyl]-1-(2-methoxyethyl)-5-methyl-6-[(2-oxoimidazolidin-1-yl)methyl]thieno[2,3-d]pyrimidine-2,4(1H,3H)-dione]
21 | 5.9 nM | Cc1c(CN2CCN(C)C2=S)sc2c1c(=O)n(CC(F)(F)F)c(=O)n2CCC(F)(F)F [Example 306, 5-Methyl-6-[(3-methyl-2-thioxoimidazolidin-1-yl)methyl]-3-(2,2,2-trifluoroethyl)-1-(3,3,3-trifluoropropyl)thieno[2,3-d]pyrimidine-2,4(1H,3H)-dione]
